The assay deals with nude-mouse transplanted tumor of human gastric cancer MKN-45. Put plainly: growth of nude-mouse transplanted tumor of human gastric cancer MKN-45. Particulars: positive control, 10 mg/kg iv, day 19.

From patent EP2926811A1, “ARTEMETHER-CONTAINING PHARMACEUTICAL COMPOSITION, PREPARATION, AND USE THEREOF” (Kunming Pharmaceutical Corp., priority 2012, dated 2014) come the findings set out here.

The structures appear in SMILES notation.

As to `O=c1[nH]cc(F)c(=O)[nH]1` [5-Fu, 5-fluorouracil], the RTV amounted to 10.60±2.28 and the “T/C (%)” value is 37.72%.
